From ChEMBL document CHEMBL1201862, “PubChem BioAssay data set” (2004)
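Grown in 96-well plates, cells were treated for 48 hours with each compound at five concentrations. Insufficient inhibition: endpoint recorded as highest concentration tested. Abbreviation: GI50, concentration required for 50% inhibition of growth.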 Activity calls are given as the source filed them. Rule as the data show it: active = GI50 up to about 1.1 µM and inactive = higher.

Legend:
Experiment in all cases: NCI-60 cell line screen, 48 h
A549 = system: A549
A498 = system: A498
NCI-H226 = system: NCI-H226
HCC 2998 = system: HCC 2998
SK-MEL-5 = system: SK-MEL-5
M14 = system: M14
786-0 = system: 786-0
SF-268 = system: SF-268
SF-539 = system: SF-539
OVCAR-5 = system: OVCAR-5
K562 = system: K562
SK-OV-3 = system: SK-OV-3
SR = system: SR
COLO 205 = system: COLO 205
Malme-3M = system: Malme-3M
CAKI-1 = system: CAKI-1

Measured: GI50

C/C=C1\CN2CCc3c([nH]c4ccccc34)C2CC1CCO (configuration not stated)
inactive: A549 > 100 µM | A498 > 100 µM | NCI-H226 > 100 µM | HCC 2998 > 100 µM | SK-MEL-5 > 100 µM | M14 > 100 µM | 786-0 > 100 µM | SF-268 > 100 µM | SF-539 > 100 µM | OVCAR-5 > 100 µM | K562 > 100 µM | SK-OV-3 > 100 µM | SR > 100 µM | COLO 205 > 100 µM | Malme-3M > 100 µM

C=CCC1(CN(C)C)CC/C(=C\c2cc(OC)c(OC)c(OC)c2)C1=O (configuration not stated)
inactive: A549 40.2 µM | A498 29.4 µM | NCI-H226 52.4 µM | HCC 2998 18.1 µM | CAKI-1 19.4 µM | SK-MEL-5 20 µM | M14 19.4 µM | 786-0 19.4 µM | SF-268 19.2 µM | SF-539 18.7 µM | OVCAR-5 51.9 µM | K562 20.4 µM | SR 19.6 µM | COLO 205 17 µM | Malme-3M 33.1 µM

CCSc1nc2n(c(=S)n1)CCN2C
inactive: A549 24.5 µM | A498 19.3 µM | NCI-H226 18.6 µM | HCC 2998 16.3 µM | CAKI-1 13.5 µM | SK-MEL-5 15.2 µM | M14 15.8 µM | 786-0 18.5 µM | SF-268 27.9 µM | SF-539 19.2 µM | OVCAR-5 21.4 µM | K562 27.7 µM | SK-OV-3 21 µM | SR 7.67 µM | Malme-3M 17.1 µM

O=c1c(Cc2ccccc2)c(O)cc2n1CCC2
inactive: A549 > 100 µM | A498 > 100 µM | NCI-H226 > 100 µM | HCC 2998 > 100 µM | CAKI-1 > 100 µM | SK-MEL-5 > 100 µM | M14 > 100 µM | 786-0 > 100 µM | SF-268 > 100 µM | SF-539 > 100 µM | OVCAR-5 > 100 µM | K562 > 100 µM | SK-OV-3 > 100 µM | SR > 100 µM | COLO 205 > 100 µM | Malme-3M > 100 µM

CN(C)CCN(C)C(=O)C1CCCN1C(=O)OCc1ccccc1 (configuration not stated)
inactive: A549 > 100 µM | A498 > 100 µM | NCI-H226 > 100 µM | HCC 2998 > 100 µM | SK-MEL-5 > 100 µM | M14 > 100 µM | 786-0 > 100 µM | SF-268 > 100 µM | SF-539 > 100 µM | OVCAR-5 > 100 µM | K562 61.1 µM | SK-OV-3 > 100 µM | SR 38.6 µM | COLO 205 > 100 µM | Malme-3M > 100 µM

O=CN/C=C\c1cc(O)ccc1O
inactive: A549 > 100 µM | A498 74.8 µM | NCI-H226 14.5 µM | HCC 2998 > 100 µM | CAKI-1 12.7 µM | SK-MEL-5 7.59 µM | M14 13.5 µM | 786-0 15.8 µM | SF-268 22.5 µM | SF-539 10.7 µM | OVCAR-5 > 100 µM | K562 13.3 µM | SK-OV-3 > 100 µM | SR 3.91 µM | COLO 205 14.2 µM | Malme-3M 13.8 µM

O=C/C(=C(/Cl)c1ccc(O)cc1)c1ccccc1
inactive: A549 32.1 µM | A498 50.5 µM | NCI-H226 > 100 µM | HCC 2998 71.9 µM | CAKI-1 27.4 µM | SK-MEL-5 23 µM | M14 27.8 µM | 786-0 27.8 µM | SF-268 25 µM | SF-539 28.6 µM | OVCAR-5 > 100 µM | K562 45.3 µM | SK-OV-3 26.5 µM | SR > 100 µM | COLO 205 23 µM | Malme-3M 23.7 µM

Cc1cccc(NC2=NC(=O)C(CC(=O)Nc3ccccc3Cl)S2)c1 (configuration not stated)
inactive: A549 > 100 µM | A498 > 100 µM | NCI-H226 > 100 µM | HCC 2998 > 100 µM | CAKI-1 > 100 µM | SK-MEL-5 > 100 µM | M14 > 100 µM | 786-0 > 100 µM | SF-268 > 100 µM | SF-539 > 100 µM | OVCAR-5 > 100 µM | K562 > 100 µM | SR > 100 µM | Malme-3M > 100 µM

COc1ccc(N2C(=O)C3c4[nH]c5ccccc5c4C4CC(C)CC(C)C4C3C2=O)cc1 (configuration not stated)
inactive: A549 > 100 µM | A498 > 100 µM | NCI-H226 > 100 µM | HCC 2998 > 100 µM | SK-MEL-5 > 100 µM | M14 > 100 µM | 786-0 > 100 µM | SF-268 > 100 µM | SF-539 > 100 µM | K562 > 100 µM | SK-OV-3 > 100 µM | SR > 100 µM | COLO 205 > 100 µM | Malme-3M > 100 µM

Cc1ccccc1NC(=O)CC(=O)NNCC(=O)Nc1nnc(-c2ccccc2)s1
inactive: A549 > 100 µM | A498 30.9 µM | NCI-H226 26.5 µM | HCC 2998 > 100 µM | CAKI-1 > 100 µM | SK-MEL-5 51.1 µM | M14 57.1 µM | 786-0 31.9 µM | SF-268 > 100 µM | SF-539 > 100 µM | OVCAR-5 > 100 µM | K562 37.8 µM | SR 32.1 µM | COLO 205 > 100 µM

O=C1CSC(C(/N=N/c2ccccc2)=C2Nc3ccccc3N2)=N1
inactive: A549 53.2 µM | A498 30.7 µM | NCI-H226 13.6 µM | HCC 2998 > 100 µM | CAKI-1 24.9 µM | SK-MEL-5 39.8 µM | M14 70.3 µM | 786-0 25.8 µM | SF-268 36.1 µM | SF-539 26.4 µM | OVCAR-5 > 100 µM | K562 33.5 µM | SK-OV-3 18.3 µM | SR 12.5 µM | COLO 205 > 100 µM | Malme-3M 58.3 µM

CCOC(=O)C1=C(Nc2cccc3ccccc23)OC/C1=N\NC(=O)c1ccccc1O
inactive: A549 16.4 µM | A498 19.5 µM | NCI-H226 22.3 µM | HCC 2998 54.1 µM | CAKI-1 7.28 µM | SK-MEL-5 12.9 µM | M14 21.9 µM | 786-0 21 µM | SF-268 13.4 µM | SF-539 10.6 µM | OVCAR-5 20.6 µM | K562 10.1 µM | SK-OV-3 26 µM | SR 7.55 µM | COLO 205 15.5 µM | Malme-3M 28.9 µM

BrC(Br)([P+](c1ccccc1)(c1ccccc1)c1ccccc1)[P+](c1ccccc1)(c1ccccc1)c1ccccc1
inactive: A549 26.3 µM | A498 22.4 µM | NCI-H226 20.3 µM | HCC 2998 17.4 µM | CAKI-1 7.98 µM | SK-MEL-5 15.9 µM | M14 18.5 µM | 786-0 13.5 µM | SF-268 24 µM | SF-539 13.6 µM | OVCAR-5 21.6 µM | SK-OV-3 38.5 µM | SR 14 µM | COLO 205 16.4 µM | Malme-3M 12.5 µM
